Series [1] can be described thus: Solution stability. In kind it is physicochemical. The settings on record: pH6, room temperature, kept in dark.
Series [2] relates to PC3 xenograft. Briefly: PC3 xenograft tumor model. Set-up: species or system mice. To be noted: mouse, in vivo. Here is the method: Drugs. Compounds of the invention were synthesized and prepared for i.v. administration in a biocompatible vehicle. CPT-11 (Camptosar®, Pharmacia) was obtained as the pharmaceutical drug and was prepared in 5% dextrose-water (D5W). All preparations were made fresh weekly and injection volumes were adjusted to body weight (0.2 ml/20 g mouse).
Mice/Husbandry. Female nu/nu mice were obtained from Charles River, housed in static microisolators, and provided ad libitum with water and an irradiated standard rodent diet (Purina Pico-Lab Rodent Diet 20).
Standard Protocol. […] Animals were initially monitored twice weekly for tumor growth and then daily as the implants approached the desired size of approximately 100 mm^3. When the tumors grew to between 62-221 mg in calculated tumor weight, the animals were pair-matched into appropriate experimental treatment groups (8-10 animals/group) and treatment with test compounds was initiated. […] Tumor weights were calculated and body weights were taken twice weekly and animals were observed frequently for adverse drug effects. […]
Tumors were measured by determining the length and width of the tumor with a digital caliper. […]
Log cell kill (LCK) is a calculation that determines the percentage of tumor cells that are killed after the initiation of treatment and can be used as a quantitative measure of efficacy: […]

For series [3], the target named is T1, CK1 delta (Homo sapiens, UniProt P48730).
T1 construct: purchased Upstate 14-520
Briefly: CK1-Delta kinase assay (B16 assay). In kind it is biochemical.

Where a name gives a salt, the structure may show the parent alone. Read-outs that look alike come from different tables or passages of the source. Bounds are passed on as bounds.

T1 sequence (P48730 whole entry): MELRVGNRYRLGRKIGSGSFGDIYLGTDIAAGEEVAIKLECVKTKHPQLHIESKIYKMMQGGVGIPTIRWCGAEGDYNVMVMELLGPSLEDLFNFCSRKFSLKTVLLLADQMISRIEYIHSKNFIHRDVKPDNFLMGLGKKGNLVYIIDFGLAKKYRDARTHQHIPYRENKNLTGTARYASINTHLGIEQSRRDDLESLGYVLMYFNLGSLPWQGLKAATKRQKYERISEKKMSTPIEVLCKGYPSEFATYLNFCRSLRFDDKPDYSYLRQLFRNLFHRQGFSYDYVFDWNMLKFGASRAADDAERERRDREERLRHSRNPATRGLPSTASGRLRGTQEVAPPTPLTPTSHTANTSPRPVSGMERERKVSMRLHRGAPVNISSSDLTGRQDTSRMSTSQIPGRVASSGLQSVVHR

Regarding `CC(C)N1CCN(C(=O)COc2ccc(-c3n[nH]c4c3C(=O)c3c(NC(=O)NN5CCOCC5)cccc3-4)cc2)CC1` [Compound A37], the Solution stability in series [1] is reported as above 1 mo. In series [2], the “efficacy in PC3 xenograft tumor model” value is on record as “high efficacy”.

In the case of `COCCN1CCN(Cc2ccc(-c3n[nH]c4c3C(=O)c3c(NC(=O)NN5CCOCC5)cccc3-4)cc2)CC1` [Compound B16, N-[3-(4-{[4-(2-methoxyethyl)piperazinyl]methyl}phenyl)-4-oxoindeno[2,3-d]pyrazol-5-yl](morpholin-4-ylamino)carboxamide dihydrochloride], the IC50 is below 0.05 µM in series [3] (CK1 delta, read-out: CSNK1A1 (CK1) Inhibition (IC50), B16) and below 0.1 µM in series [3] (kinase panel, read-out: CK1 IC50 (B16)).
